In US10669272B2, “Substituted naphthyridinone compounds useful as T cell activators” (BRISTOL-MYERS SQUIBB COMPANY, priority 2018, dated 2020) one finds EC50 and IC50 data, which are given here for eleven compounds.

The test system of assay [1] is naïve human CD8 T cells. As to the kind of experiment: Human CD8 T cells IFN-γ assay.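 Also: Naïve human CD8 T cells stimulated with plate-bound anti-CD3 and soluble anti-CD28, IFN-γ in supernatant quantified by AlphaLISA and converted to pg/mL.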 Type of assay: cell-based. The settings on record: normalized to 3 μM reference compound with anti-CD3 plus anti-CD28 as 100% activation, read-out: HuCD8 INFG Normalized EC50.
The target of assay [2] is T1, human DGKα (Homo sapiens, UniProt P23743).
T1 construct: TVMV protease cleavage site (C); Hexa-His (C); made in house; host or cells: Sf9 insect cells (baculovirus, Bac-to-Bac)
Put plainly: DGKα LIPGLO assay (extruded liposome substrate), in vitro DGK inhibition. The settings on record: liposome (LIPGLO) assay; read-out: DGKa LIPGLO IC50. Type of assay: biochemical.

The target of assay [3] is T2, human DGKζ (Homo sapiens, UniProt Q13574).
T2 construct: TVMV protease cleavage site (C); Hexa-His (C); made in house; host or cells: Sf9 insect cells (baculovirus, Bac-to-Bac)
Put plainly: DGKζ LIPGLO assay (extruded liposome substrate), in vitro DGK inhibition. Type of assay: biochemical. The settings on record: liposome (LIPGLO) assay; read-out: DGKz LIPGLO IC50.

Assay [4] relates to Human venous whole blood. Put plainly: Human whole blood IFN-γ assay.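 Also: blood from healthy donors exposed to compound for 1 h before stimulation with anti-CD3 and anti-CD28 at 1 µg/mL each, IFN-γ quantified in supernatant by AlphaLISA.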 Type of assay: cell-based. The settings on record: Homo sapiens, 24 h, human whole blood; normalized to 3 μM reference compound with anti-CD3 plus anti-CD28 as 100% activation; read-out: INFg Whole Blood Normalized Agonist EC50.
Protocol: Human Whole Blood IFN-γ Assay
Human venous whole blood (22.5 μL per well), obtained from healthy donors, was pre-treated with compounds for one hour at 37° C. in a humidified 95% air/5% CO2 incubator. The blood was stimulated with 2.5 μL anti-human CD3 and anti-CD28 mAb at a final concentration of 1 μg/mL each for 24 hours at 37° C. IFN-γ in the supernatants was measured using AlphLISA kit (Cat # AL217).

Read-outs that look alike come from different tables or passages of the source.

T2 sequence (Q13574 with tags, fused parts or gaps isoform Q13574-4): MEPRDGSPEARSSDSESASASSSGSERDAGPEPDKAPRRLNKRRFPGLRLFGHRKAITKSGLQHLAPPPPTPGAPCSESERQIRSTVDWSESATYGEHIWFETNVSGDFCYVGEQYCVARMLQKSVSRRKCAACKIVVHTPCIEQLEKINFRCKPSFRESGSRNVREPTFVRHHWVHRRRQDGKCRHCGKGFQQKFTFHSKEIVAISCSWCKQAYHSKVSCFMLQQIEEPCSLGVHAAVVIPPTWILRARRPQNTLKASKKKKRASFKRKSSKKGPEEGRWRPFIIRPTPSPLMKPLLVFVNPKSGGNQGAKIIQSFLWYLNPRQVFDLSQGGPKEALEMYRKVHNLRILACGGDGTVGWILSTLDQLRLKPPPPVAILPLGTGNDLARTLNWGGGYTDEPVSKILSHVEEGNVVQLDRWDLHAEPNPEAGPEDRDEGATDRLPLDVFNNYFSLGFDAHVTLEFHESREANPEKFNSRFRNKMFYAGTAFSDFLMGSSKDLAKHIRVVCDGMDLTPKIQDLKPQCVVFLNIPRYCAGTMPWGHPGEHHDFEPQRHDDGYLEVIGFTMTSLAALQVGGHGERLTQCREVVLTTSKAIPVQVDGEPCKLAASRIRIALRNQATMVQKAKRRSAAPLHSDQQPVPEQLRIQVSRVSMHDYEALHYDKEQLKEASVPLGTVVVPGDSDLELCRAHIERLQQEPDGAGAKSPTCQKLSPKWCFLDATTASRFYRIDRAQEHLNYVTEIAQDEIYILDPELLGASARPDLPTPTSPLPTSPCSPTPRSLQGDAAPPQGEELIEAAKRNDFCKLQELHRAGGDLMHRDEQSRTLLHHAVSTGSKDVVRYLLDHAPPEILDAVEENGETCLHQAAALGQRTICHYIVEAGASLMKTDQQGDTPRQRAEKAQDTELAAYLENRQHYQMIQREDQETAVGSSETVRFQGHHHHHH
T1 sequence (P23743 with tags, fused parts or gaps): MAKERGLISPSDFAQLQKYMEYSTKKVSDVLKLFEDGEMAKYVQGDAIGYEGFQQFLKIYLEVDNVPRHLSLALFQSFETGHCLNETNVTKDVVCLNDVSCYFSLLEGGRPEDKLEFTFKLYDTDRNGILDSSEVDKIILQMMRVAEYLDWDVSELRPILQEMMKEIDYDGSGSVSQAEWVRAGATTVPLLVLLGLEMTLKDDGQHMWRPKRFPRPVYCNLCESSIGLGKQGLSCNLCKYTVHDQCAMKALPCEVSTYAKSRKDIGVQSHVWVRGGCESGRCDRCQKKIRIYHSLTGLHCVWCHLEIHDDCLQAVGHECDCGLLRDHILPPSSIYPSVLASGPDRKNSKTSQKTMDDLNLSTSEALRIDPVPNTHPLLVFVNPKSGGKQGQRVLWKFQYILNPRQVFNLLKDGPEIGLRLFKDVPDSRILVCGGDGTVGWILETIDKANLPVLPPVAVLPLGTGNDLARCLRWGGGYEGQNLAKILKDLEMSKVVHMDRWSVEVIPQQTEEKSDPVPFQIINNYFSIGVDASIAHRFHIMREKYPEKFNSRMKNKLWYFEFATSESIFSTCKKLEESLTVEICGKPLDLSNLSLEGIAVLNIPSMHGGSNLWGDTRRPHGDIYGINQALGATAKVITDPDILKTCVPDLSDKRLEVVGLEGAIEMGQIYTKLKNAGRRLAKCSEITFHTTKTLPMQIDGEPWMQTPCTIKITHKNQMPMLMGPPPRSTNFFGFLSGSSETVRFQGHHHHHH

`Cn1c(=O)cc(N2CCN(C(c3ccc(F)cc3)c3ccc(F)cc3)C(C(=O)NC3CC3)C2)c2nc(C#N)ccc21` (racemic) [Example 46, 1-(bis(4-fluorophenyl)methyl)-4-(6-cyano-1-methyl-2-oxo-1,2-dihydro-1,5-naphthyridin-4-yl)-N-cyclopropylpiperazine-2-carboxamide]: in assay [1] (Homo sapiens, T-cell, 20 h), the EC50 was found to be 4.7 µM. Also, the values for the concentration for half-maximal inhibition (IC50) in assay [2] and in assay [3] were 240 µM and 3.5 µM, respectively.
The matching figures for `Cn1c(=O)cc(N2CCN(C(c3ccc(F)cc3)c3ccc(F)cc3)CC2CO)c2nc(C#N)ccc21` (racemic) [Example 146, 8-(4-(bis(4-fluorophenyl)methyl)-2-(hydroxymethyl)piperazin-1-yl)-5-methyl-6-oxo-5,6-dihydro-1,5-naphthyridine-2-carbonitrile]: 0.66 µM, 84 µM and 14 µM.
Regarding `Cn1c(=O)cc(N2CCN(C(c3ccc(F)cc3)c3ccc(F)cc3)C(C(N)=O)C2)c2nc(C#N)ccc21` (single isomer, unassigned) [Example 41, 1-(bis(4-fluorophenyl)methyl)-4-(6-cyano-1-methyl-2-oxo-1,2-dihydro-1,5-naphthyridin-4-yl)piperazine-2-carboxamide], the EC50 in assay [1] turned out to be 1.5 µM. Besides, the concentration for half-maximal inhibition (IC50) in assay [2] was determined as 14 µM; in assay [3], 46 µM.
As for `Cn1c(=O)cc(N2CCN(C(c3ccc(F)cc3)c3ccc(F)cc3)C(C(=O)NC3CC3)C2)c2nc(C#N)ccc21` (single isomer, unassigned) [Example 48, 1-(bis(4-fluorophenyl)methyl)-4-(6-cyano-1-methyl-2-oxo-1,2-dihydro-1,5-naphthyridin-4-yl)-N-cyclopropylpiperazine-2-carboxamide], the 50% effective concentration (EC50) in assay [1] is 3.8 µM. The IC50 was determined as 240 µM in assay [2] and 20 µM in assay [3].
In the case of `Cn1c(=O)c(C#N)c(N2CCN(C(c3ccc(F)cc3)c3ccc(F)cc3)C(C(=O)O)C2)c2nc(C#N)ccc21` (single isomer, unassigned) [Example 53, 1-(bis(4-fluorophenyl)methyl)-4-(3,6-dicyano-1-methyl-2-oxo-1,2-dihydro-1,5-naphthyridin-4-yl)piperazine-2-carboxylic acid], in assay [1] (Homo sapiens, T-cell, 20 h), the EC50 was 10 µM. Moreover, the half-maximal inhibitory concentration (IC50) was 140 µM in assay [2] and 94 µM in assay [3].
As to `Cc1oncc1CN1C[C@H](C)N(c2cc(=O)n(C)c3ccc(C#N)nc23)C[C@H]1C` [Example 1431], the IC50 in assay [2] stood at 59 µM; in assay [3], 12 µM. Besides, the EC50 in assay [4] came out at 13 µM.
In the case of `CC(C)c1nc(CN2C[C@H](C)N(c3cc(=O)n(C)c4ccc(C#N)nc34)C[C@H]2C)no1` [Example 1432], the IC50 in assay [2] worked out at 2.1 µM; in assay [3] it was 7.7 µM. Moreover, the 50% effective concentration (EC50) in assay [4] amounted to 20 µM.
The matching figures for `C[C@@H]1CN(c2cc(=O)n(C)c3ccc(C#N)nc23)[C@@H](C)CN1Cc1noc2ccccc12` [Example 1433]: 2.5 µM, 2.8 µM and 13 µM.
The matching figures for `C[C@@H]1CN(c2cc(=O)n(C)c3ccc(C#N)nc23)[C@@H](C)CN1Cc1coc(-c2cccs2)n1` [Example 1434]: 2.1 µM, 0.96 µM and 21 µM.
The like results for `CCC(c1ccc(OCC2CC2)cc1)N1C[C@H](C)N(c2cc(=O)n(C)c3ccc(C#N)nc23)C[C@H]1C` (stereo partly drawn) [Example 1439, 8-((2S,5R)-4-(1-(4-(cyclopropylmethoxy)phenyl)propyl)-2,5-dimethylpiperazin-1-yl)-5-methyl-6-oxo-5,6-dihydro-1,5-naphthyridine-2-carbonitrile] were, in that order, 0.2 µM, 0.65 µM and 0.25 µM.
As for `C[C@@H]1CN(c2cc(=O)n(C)c3ccc(C#N)nc23)[C@@H](C)CN1C1(c2ccc(F)cc2)CC1` [Example 1454, 8-((2S,5R)-4-(1-(4-fluorophenyl)cyclopropyl)-2,5-dimethylpiperazin-1-yl)-5-methyl-6-oxo-5,6-dihydro-1,5-naphthyridine-2-carbonitrile], the 50% inhibitory concentration (IC50) in assay [2] was 1.6 µM; in assay [3] it was 45 µM. The 50% effective concentration (EC50) in assay [4] is 10 µM.

For orientation: EC50 means the concentration at which the effect is half-maximal. A word on the IC50: it is the concentration that gives 50% inhibition.
